From US9416154B2, “5′-substituted nucleoside derivatives and methods of use thereof for the treatment of viral diseases” (priority 2011, dated 2016)
Like-named read-outs stand apart in the source and are kept apart here.

Legend:
[1] = test system: HCV replicon (1b); assay: Cell-based HCV replicon assay
Description: To measure cell-based anti-HCV activity of selected compounds of the present invention, replicon cells were seeded at 5000 cells/well in 96-well collagen I-coated Nunc plates in the presence of the test compound. Various concentrations of test compound, typically in 10 serial 2-fold dilutions, were added to the assay mixture, with the starting concentration ranging from 250 μM to 1 μM. The final concentration of dimethylsulfoxide was 0.5%, fetal bovine serum was 5%, in the assay media. Cells were harvested on day 3 by the addition of 1× cell lysis buffer (Ambion cat #8721). The replicon RNA level was measured using real time PCR (Taqman assay). The amplicon was located in 5B. The PCR primers were: 5B.2F, ATGGACAGGCGCCCTGA (SEQ ID. NO. 1); 5B.2R, […] (SEQ ID. NO. 2); the probe sequence was FAM-labeled CACGCCATGCGCTGCGG (SEQ ID. NO. 3). GAPDH RNA was used as endogenous control and was amplified in the same reaction as NS5B (multiplex PCR) using primers and VIC-labeled probe recommended by the manufacturer (PE Applied Biosystem). The real-time RT-PCR reactions were run on ABI PRISM 7900HT Sequence Detection System using the following program: 48° C. for 30 minutes, 95° C. for 10 minutes, 40 cycles of 95° C. for 15 sec, 60° C. for 1 minute. The ΔCT values (CT5B-CTGAPDH) were plotted against the concentration of test compound and fitted to the sigmoid dose-response model using XLfit4 (MDL). EC50 was defined as the concentration of inhibitor necessary to achieve ΔCT=1 over the projected baseline; EC90 the concentration necessary to achieve ΔCT=3.2 over the baseline. Alternatively, to quantitate the absolute amount of replicon RNA, a standard curve was established by including serially diluted T7 transcripts of replicon RNA in the Taqman assay. All Taqman reagents were from PE Applied Biosystems. Such an assay procedure was described in detail in e.g. Malcolm et al., Antimicrobial Agents and Chemotherapy 50: 1013-1020 (2006).

[2] = test system: Huh 7 hepatoma cells containing the subgenomic HCV replicon; assay: Cytotoxicity (MTS assay or GAPDH RNA readout); type: cell-based
Description: (§1) The effect of the nucleoside derivatives on the proliferation and metabolism of Huh 7 hepatoma cells containing the subgenomic HCV replicon was measured using the MTS assay. Briefly, cells were seeded and dosed with compounds exactly as described in Example 13 above, for replicon EC50 determination. After a 3-day compound incubation period, the MTS assay was performed in accordance with the manufacturer's protocol for the CellTiter 96 Aqueous One Solution Cell Proliferation Assay (Promega, Catalog #G358). Alternatively, after a 3-day compound incubation, the amount of glyceraldehyde-3-phosphate dehydrogenase (GAPDH) RNA in replicon-containing Huh 7 cells was determined using qRT-PCR. CC50 values were derived from 10 serial 2-fold dilutions of the inhibitor in duplicate that yielded 50% inhibition of the MTS or GAPDH RNA readout by comparison with cells treated with vehicle control.

[3] = Cytotoxicity (MTS assay or GAPDH RNA readout); type: cell-based; details: human, replicon-containing Huh 7 cells, 3-day incubation, MTS or GAPDH RNA readout; read-out: 1b CC50
Description: as §1

[4] = replicon cells, 3-day incubation, replicon RNA by real time PCR (Taqman), read-out: 1b EC50
[5] = replicon-containing Huh 7 cells, 3-day incubation, MTS or GAPDH RNA readout, read-out: 1b CC50
[6] = Hepatitis C virus, 72 h, read-out: 1b EC50, replicon cells, 3-day incubation, replicon RNA by real time PCR (Taqman)
[7] = read-out: 1b EC50, replicon cells, 3-day incubation, replicon RNA by real time PCR (Taqman)
[8] = Hepatitis C virus, 72 h, replicon cells, 3-day incubation, replicon RNA by real time PCR (Taqman), read-out: 1b EC50

Structure (SMILES)	EC50 [1, 6] [µM]	CC50 at 3 day [3] [µM]	other results
C[C@H](O)C1O[C@@H](n2cc(F)c3c(N)ncnc32)[C@](C)(F)[C@@H]1O (some centres unmarked) [Compound 25]	–	–	EC50 [1, 4]: > 100 µM; CC50 [2, 5]: > 100 µM
CC(C)OC(=O)[C@H](C)NP(=O)(Oc1cccc2ccccc12)OC(C)[C@H]1O[C@@H](n2ccc3c(N)ncnc32)[C@](C)(F)[C@@H]1O (some centres unmarked) [Compound 19]	> 20	> 20	–
CC(C)OC(=O)[C@H](C)NP(=O)(Oc1ccc(Cl)cc1)OC(C)[C@H]1O[C@@H](n2ccc3c(N)ncnc32)[C@](C)(F)[C@@H]1O (some centres unmarked) [Compound 21]	> 100	> 100	–
CCOC(=O)[C@H](C)NP(=O)(Oc1ccc(Cl)cc1)OC(C)[C@H]1O[C@@H](n2ccc3c(N)ncnc32)[C@](C)(F)[C@@H]1O (some centres unmarked) [Compound 20]	> 100	> 100	–
CCOC(=O)[C@H](C)NP(=O)(Oc1ccccc1Cl)OC(C)[C@H]1O[C@@H](n2ccc3c(N)ncnc32)[C@](C)(F)[C@@H]1O (some centres unmarked) [Compound 22]	> 100	> 100	–
COC(=O)[C@H](C)NP(=O)(Oc1ccccc1)OC(C)[C@H]1O[C@@H](n2ccc3c(N)ncnc32)[C@](C)(O)[C@@H]1O (some centres unmarked) [Compound 40]	21	> 100	–
CC(C)OC(=O)[C@H](C)NP(=O)(Oc1ccccc1)OC(C)[C@H]1O[C@@H](n2ccc3c(N)ncnc32)[C@](C)(F)[C@@H]1O (some centres unmarked) [Compound 17]	> 100	> 100	–
CC(C)OC(=O)[C@H](C)NP(=O)(Oc1ccccc1Cl)OC(C)[C@H]1O[C@@H](n2ccc3c(N)ncnc32)[C@](C)(F)[C@@H]1O (some centres unmarked) [Compound 23]	> 100	> 100	–
CCCCOC(=O)[C@H](C)NP(=O)(Oc1cccc2ccccc12)OC(C)[C@H]1O[C@@H](n2ccc3c(N)ncnc32)[C@](C)(O)[C@@H]1O (some centres unmarked) [Compound 44]	–	51	EC50 [1, 7]: 2 µM
CC(O)[C@H]1O[C@@H](n2cc(-c3cc[nH]n3)c3c(N)ncnc32)[C@](C)(F)[C@@H]1O (some centres unmarked) [Compound 33]	–	> 100	EC50 [1, 8]: > 100 µM
CC[C@@H](O)[C@H]1O[C@@H](n2ccc3c(N)ncnc32)[C@](C)(O)[C@@H]1O [Compound 7]	–	> 100	EC50 [1, 8]: > 100 µM
COC(=O)[C@H](C)NP(=O)(Oc1ccccc1)O[C@@H](C)[C@H]1O[C@@H](n2ccc3c(N)ncnc32)[C@](C)(O)[C@@H]1O (some centres unmarked) [Compound 35]	> 100	> 100	–
CCCCOC(=O)[C@H](C)NP(=O)(Oc1cccc2ccccc12)O[C@H](C)[C@H]1O[C@@H](n2ccc3c(N)ncnc32)[C@](C)(O)[C@@H]1O (some centres unmarked) [Compound 2]	–	–	EC50 [1, 4]: 33 µM; CC50 [2, 5]: 44 µM
C[C@@H](O)C1O[C@@H](n2cc(F)c3c(N)ncnc32)[C@](C)(F)[C@@H]1O (some centres unmarked) [Compound 26]	–	–	EC50 [1, 4]: > 100 µM; CC50 [2]: > 100 µM
COC(=O)[C@H](C)NP(=O)(Oc1ccccc1)O[C@H](C)[C@H]1O[C@@H](n2cc(F)c3c(N)ncnc32)[C@](C)(O)[C@@H]1O (some centres unmarked) [Compound 11]	37	> 100	–
C[C@@H](O)C1O[C@@H](n2ccc3c(N)ncnc32)[C@](C)(O)[C@@H]1O (some centres unmarked) [Compound 27]	–	–	EC50 [1, 4]: > 100 µM; CC50 [2, 5]: > 100 µM
CC[C@@H](O)[C@H]1O[C@@H](n2cc(F)c3c(N)ncnc32)[C@](C)(O)[C@@H]1O [Compound 5]	–	24	EC50 [1, 8]: 23 µM

Structure (SMILES)	EC50 [1, 6] [µM]	CC50 at 3 day [3] [µM]	other results
CC[C@@H](OP(=O)(N[C@@H](C)C(=O)OC)Oc1ccccc1)[C@H]1O[C@@H](n2cc(F)c3c(N)ncnc32)[C@](C)(O)[C@@H]1O (some centres unmarked) [Compound 10]	15	20	–
CCOC(=O)[C@H](C)NP(=O)(Oc1ccccc1)O[C@@H](C)[C@H]1O[C@@H](n2ccc3c(N)ncnc32)[C@](C)(O)[C@@H]1O (some centres unmarked) [Compound 39]	> 100	> 100	–
CC(C)OC(=O)[C@H](C)NP(=O)(Oc1ccccc1)OC(C)[C@H]1O[C@@H](n2ccc3c(N)ncnc32)[C@](C)(O)[C@@H]1O (some centres unmarked) [Compound 43]	14	98	–
CC(C)(O)[C@H]1O[C@@H](n2ccc3c(N)ncnc32)[C@](C)(F)[C@@H]1O [Compound 30]	–	–	EC50 [1, 4]: > 100 µM; CC50 [2]: > 100 µM
CC(OP(=O)(N[C@@H](C)C(=O)OCC(C)(C)C)Oc1ccccc1)[C@H]1O[C@@H](n2ccc3c(N)ncnc32)[C@](C)(O)[C@@H]1O (some centres unmarked) [Compound 41]	18	> 100	–
COC(=O)[C@H](C)NP(=O)(Oc1ccccc1)O[C@H](C)[C@H]1O[C@@H](n2ccc3c(N)ncnc32)[C@](C)(O)[C@@H]1O (some centres unmarked) [Compound 34]	> 100	> 100	–
CCCCOC(=O)[C@H](C)NP(=O)(Oc1cccc2ccccc12)OC(C)[C@H]1O[C@@H](n2ccc3c(N)ncnc32)[C@](C)(O)[C@@H]1O (some centres unmarked) [Compound 45]	–	–	EC50 [1, 7]: 22 µM; CC50 [2, 5]: > 100 µM
CC(O)[C@H]1O[C@@H](n2ccc3c(N)ncnc32)[C@](C)(F)[C@@H]1O (some centres unmarked) [Compound 14]	–	> 100	EC50 [1, 8]: > 100 µM
CCOC(=O)[C@H](C)NP(=O)(Oc1ccccc1)O[C@H](C)[C@H]1O[C@@H](n2ccc3c(N)ncnc32)[C@](C)(O)[C@@H]1O (some centres unmarked) [Compound 38]	> 100	> 100	–
C[C@@H](O)[C@H]1O[C@@H](n2cc(F)c3c(N)ncnc32)[C@](C)(O)[C@@H]1O [Compound 3]	–	> 100	EC50 [1, 8]: > 100 µM
COC(=O)[C@H](C)NP(=O)(Oc1cccc2ccccc12)OC(C)[C@H]1O[C@@H](n2ccc3c(N)ncnc32)[C@](C)(O)[C@@H]1O (some centres unmarked) [Compound 42]	4.8	> 100	–
CCCCOC(=O)[C@H](C)NP(=O)(Oc1cccc2ccccc12)O[C@H](CC)[C@H]1O[C@@H](n2ccc3c(N)ncnc32)[C@](C)(O)[C@@H]1O (some centres unmarked) [Compound 8]	13	30	–
CCOC(=O)[C@H](C)NP(=O)(Oc1cccc2ccccc12)OC(C)[C@H]1O[C@@H](n2ccc3c(N)ncnc32)[C@](C)(F)[C@@H]1O (some centres unmarked) [Compound 18]	> 100	> 100	–
CC(C)OC(=O)[C@H](C)NP(=O)(Oc1cccc2ccccc12)OC(C)(C)[C@H]1O[C@@H](n2ccc3c(N)ncnc32)[C@](C)(F)[C@@H]1O (some centres unmarked) [Compound 32]	> 20	> 20	–
COC(=O)[C@H](C)NP(=O)(Oc1ccccc1)O[C@@H](C)[C@H]1O[C@@H](n2cc(F)c3c(N)ncnc32)[C@](C)(O)[C@@H]1O (some centres unmarked) [Compound 12]	39	> 100	–
CCCCOC(=O)[C@H](C)NP(=O)(Oc1cccc2ccccc12)O[C@H](C)[C@H]1O[C@@H](n2cc(F)c3c(N)ncnc32)[C@](C)(O)[C@@H]1O (some centres unmarked) [Compound 4]	> 100	84	–
CCCCOC(=O)[C@H](C)NP(=O)(Oc1cccc2ccccc12)O[C@H](CC)[C@H]1O[C@@H](n2cc(F)c3c(N)ncnc32)[C@](C)(O)[C@@H]1O (some centres unmarked) [Compound 6]	9.3	5.7	–
